In article PMC6105497 (The FEBS journal, 2018):

Key:
vcFabH2 (C113A) = vcFabH2 (C113A) (Vibrio cholerae serotype O1, UniProt Q9KLJ3, C113A); format: binding; conditions: for Binding sites/molecule (Stoichiometry): pH 7.5
vcFabH1 = vcFabH1 (Vibrio cholerae serotype O1, UniProt Q9KQH5); assay: biochemical; format: biochemical; conditions: for Reaction rate relative to that of acetyl-CoA: pH 7.5
vcFabH2 (C356A) = vcFabH2 (C356A) (Vibrio cholerae serotype O1, UniProt Q9KLJ3, C356A); format: binding
vcFabH2 = vcFabH2 (Vibrio cholerae serotype O1, UniProt Q9KLJ3); assay: biochemical; format: biochemical

SMILES	ΔH (vcFabH2 (C113A)) [kcal/mol]	ΔS (vcFabH2 (C113A)) [cal∙mol^−1∙K^−1]	Binding sites/molecule (Stoichiometry) (vcFabH2 (C113A))	Reaction rate relative to that of acetyl-CoA (vcFabH1)	Hill coefficient n (vcFabH1)	Kd (vcFabH1) [µM]	Vmax (maximum activity) (vcFabH1) [μmol∙min^−1∙μmol^−1]	Binding sites/molecule (Stoichiometry) (vcFabH2 (C356A))	ΔH (vcFabH2 (C356A)) [kcal/mol]	ΔS (vcFabH2 (C356A)) [cal∙mol^−1∙K^−1]	Hill coefficient n (vcFabH2)	Kd (vcFabH2) [µM]	Vmax (maximum activity) (vcFabH2) [μmol∙min^−1∙μmol^−1]
CCCC(=O)SCCNC(=O)CCNC(=O)[C@H](O)C(C)(C)COP(=O)(O)OP(=O)(O)OC[C@H]1O[C@@H](n2cnc3c(N)ncnc32)[C@H](O)[C@@H]1OP(=O)(O)O [Butyryl-CoA]	-8.259	−12.00	0.87 ± 0.03	–	–	–	–	–	–	–	–	–	–
CC(C)CC(=O)SCCNC(=O)CCNC(=O)[C@H](O)C(C)(C)COP(=O)(O)OP(=O)(O)OC[C@H]1O[C@@H](n2cnc3c(N)ncnc32)[C@H](O)[C@@H]1OP(=O)(O)O [Isovaleryl-CoA]	-9.347	−16.20	0.74 ± 0.03	lower than 20%	–	–	–	–	–	–	–	–	–
CC(=O)SCCNC(=O)CCNC(=O)[C@H](O)C(C)(C)COP(=O)(O)OP(=O)(O)OC[C@H]1O[C@@H](n2cnc3c(N)ncnc32)[C@H](O)[C@@H]1OP(=O)(O)O [Acetyl-CoA]	-14.49	−34.70	0.69 ± 0.05	–	1.6±0.2	21.2 ± 2.9	14.0±1.1	–	–	–	–	–	–
CCCCCCCCCC(=O)SCCNC(=O)CCNC(=O)[C@H](O)C(C)(C)COP(=O)(O)OP(=O)(O)OC[C@H]1O[C@@H](n2cnc3c(N)ncnc32)[C@H](O)[C@@H]1OP(=O)(O)O [Decanoyl-CoA]	-7.457	−4.24	1.36 ± 0.01	–	–	–	–	1	-11.68	−25.30	–	–	–
CCCCCCCC(=O)SCCNC(=O)CCNC(=O)[C@H](O)C(C)(C)COP(=O)(O)OP(=O)(O)OC[C@H]1O[C@@H](n2cnc3c(N)ncnc32)[C@H](O)[C@@H]1OP(=O)(O)O [Octanoyl-CoA]	-12.67	−22.30	0.90 ± 0.01	lower than 20%	–	–	–	1	-3.414	4.43	1.8±0.2	24.2 ± 2.2	18.0±1.1
CC(C)C(=O)SCCNC(=O)CCNC(=O)[C@H](O)C(C)(C)COP(=O)(O)OP(=O)(O)OC[C@H]1O[C@@H](n2cnc3c(N)ncnc32)[C@H](O)[C@@H]1OP(=O)(O)O [Isobutyryl-CoA]	-8.57	−13.00	0.77 ± 0.18	–	–	–	–	–	–	–	–	–	–
CCCCCC(=O)SCCNC(=O)CCNC(=O)[C@H](O)C(C)(C)COP(=O)(O)OP(=O)(O)OC[C@H]1O[C@@H](n2cnc3c(N)ncnc32)[C@H](O)[C@@H]1OP(=O)(O)O [Hexanoyl-CoA]	-11.78	−22.10	0.878 ± 0.004	lower than 20%	–	–	–	1	-1.847	8.50	–	–	–
CCCCCCCCCCCC(=O)SCCNC(=O)CCNC(=O)[C@H](O)C(C)(C)COP(=O)(O)OP(=O)(O)OC[C@H]1O[C@@H](n2cnc3c(N)ncnc32)[C@H](O)[C@@H]1OP(=O)(O)O [Lauroyl-CoA]	-6.563	−4.60	1.38 ± 0.02	–	–	–	–	–	–	–	–	–	–
